Assay results from patent publication US4960867A, “Leiurus quinquestriatus venom peptide inhibitor of calcium activated potassium channels” (priority 1989, dated 1990).

Test system: high conductance Ca2+-activated K+ channel
Assay type: biochemical
Protocol: Single Ca^2+ -activated K^+ channel currents were monitored in excised membrane patches derived from either bovine aortic smooth muscle cells or GH3 anterior pituitary cells.
Channel recordings were made by conventional patch clamp procedures as previously described by Hamil, O. P., et al. Using a micromanipulator, a glass micropipette (fabricated from soda lime glass, 5-10 m.OMEGA. resistance; containing 150 mM potassium chloride, 2 mM magnesium chloride, 1 5 μM calcium chloride, 10 mM HEPES, pH 7.3) was positioned on the surface of the cell, slight negative pressure was applied and the formation of a high resistance seal between the plasma membrane and pipette was monitored. Seals of 10-50×10^9 .OMEGA. were required for subsequent measurements.
After attaining such a seal, the cell membrane was ruptured by application of a rapid negative pressure pulse and the electrode was pulled away from the cell to form an outside-facing-out excised patch at the tip of the electrode. The presence of Ca^2+ -activated K^+ channels was then determined, and such activity could be recorded in excised patches for up to two hours. Recordings were made at a holding potential of 0 to +20 mV in a bathing medium consisting of 150 mM sodium chloride, 10 mM HEPES, pH 7.3. […]

CC[N+](CC)(CC)CC [tetraethylammonium ion]
block of channel activity: rapid reversible block
